# Tests used:
# Assay in all cases: Substrate saturation kinetic analysis of purified GLYAT
# [1] = molecular target: GLYAT variant SEQ ID NO:8 (derived from SEQ ID NO:1 and 2) (Bacillus licheniformis, UniProt Q65LG7, A28V/D131E/E119K/E14D/E65Q/E67K/E68K/E83D/G37R/G38S/I132T/I135A/I15L/I53V/I91V/K101R/K144R/K58Q/L105M/L106I/L26I/L36T/L97I/M75V/N8S/R47G/R92K/T89S/V114A/Y130F/Y45F); conditions: pH 7.0
# [2] = molecular target: GLYAT variant SEQ ID NO:6 (derived from SEQ ID NO:1 and 2) (Bacillus licheniformis, UniProt Q65LG7, A28V/D131E/E119K/E14D/E65Q/E67K/E68K/G37R/I132T/I135A/I15L/I19V/I53V/I91V/K101R/K144R/K58Q/L105M/L106I/L26I/L36T/L97I/M75A/R47G/R92K/T89S/V114A/V4I/Y130F/Y45F/Y46C); conditions: pH 7.0
# [3] = molecular target: GLYAT variant SEQ ID NO:4 (derived from SEQ ID NO:1 and 2) (Bacillus licheniformis, UniProt Q65LG7, D131E/E14D/E65Q/E67K/E68K/G37R/G38S/I132T/I135A/I15L/I19V/I53V/I91V/K101R/K144R/K58Q/L105M/L26I/L36T/L97I/M75V/R47G/R92K/T33S/T89S/V114A/Y130F/Y31F/Y45F); conditions: pH 7.0
# [4] = molecular target: GLYAT (glyphosate-N-acetyltransferase), parent of saturation mutagenesis (already fit protein), SEQ ID NO:26 (derived from SEQ ID NO:1 and 2) (Bacillus licheniformis, UniProt Q65LG7, A28V/C29I/D131E/E14D/E65Q/E67K/E68K/E83D/G37R/I132T/I135A/I15L/I19V/I53V/I91V/K101R/K144R/K58Q/L105M/L26I/L97I/M75V/R47G/R92K/T89S/V114A/Y130F/Y45F); format: biochemical
# Method: (§1) E. coli cultures in LB or 2×YT were grown overnight at 37° C. to saturation. The cells were used as a 2% inoculum into fresh media. When OD reached 0.6, IPTG was added to 0.2 mM and growth was continued for at least 6 hours. Cells were harvested by centrifugation and stored at −80° C. Cells were lysed with BPER (Pierce) containing 1 mM dithiothreitol, 0.2 mg/ml lysozyme, 2 mg/ml protease inhibitor cocktail (Sigma bacterial cell cocktail, P8465) and endonuclease. Lysate supernatants were passed through a column of NHS-activated Agarose (Thermo, #26197) derivatized with coenzyme A. Columns were washed with 25 mM Hepes, pH 7, containing progressively higher concentrations of KCl, then eluted with 25 mM Hepes, 100 mM KCl, 10% ethylene glycol and 1 mM acetyl CoA. Purity as evaluated by polyacrylamide gel electrophoresis was deemed consistently high enough to be assumed to be 100%. Protein concentration was determined with the Bradford assay using a large-scale lot of produced GLYAT protein as standard.
# (§2) Kinetic parameters for various substrates were obtained using a range of seven substrate concentrations plus a blank containing none of the varied substrate. The non-varied substrate was present at a saturating concentration. Six-microliter aliquots of 50-fold concentrated stock solutions of the varied substrate were placed in a 96-well assay plate (Greiner BioOne UV-Star). Reactions were started with the addition of 294 ul of 25 mM Hepes, pH 7.0, 100 mM KCL, 10% ethylene glycol, the non-varied substrate and 10 to 200 nM enzyme. Absorbance was monitored for one minute with a Spectramax 384 Plus plate reader (Molecular Devices). If the amino acid present at position 30 (29 if alanine is absent at position 2) was cysteine, absorbance was monitored at 235 nm, which directly detects cleavage of the sulfoester bond of acetyl CoA. If the amino acid present at position 30 (29 if alanine is absent at position 2) was isoleucine, 0.5 mM 5,5′-dithiobis-(2-nitrobenzoic acid), which reacts with the coenzyme A thiol generated in the enzyme catalyzed reaction, was included in the reaction mix and absorbance was monitored at 412 nm. Initial rates were processed by the Softmax software to obtain kinetic parameters, using the double-reciprocal transformation.
# The sequences with the new substitutions were derived through a combination of saturation mutagenesis of an already fit protein (SEQ ID NO:26) and an effective screening cascade as a means of identifying the improved genes (Examples 1-2). Regions in which novel changes are concentrated include helix H2a (positions 23 and 25-29) and the hairpin formed by strands B6 and B7 (positions 124-144). These two structures are components of the amino substrate binding site. Helix H3, the backbone to which the central beta sheet is anchored, is a region where 24% of the novel substitutions (17 out of 71) disclosed in Table 4 are concentrated into 11% of the positions (16 out of 146). None of those are near enough to the active site to influence substrate specificity directly. In three cases, multiple novel substitutions were discovered immediately or nearly adjacent to conserved amino acids shown previously to contribute to the catalytic mechanism (Siehl D L et. al., J Biol Chem, 282:11446, 2007). The catalytic amino acids for which this is the case are R21, R111, H138 and the nearby positions with multiple substitutions are 23, 112 and 137. The diverse amino acids at these positions may influence the orientation of the neighboring catalytic amino acids so as to selectively optimize catalysis with the preferred substrate, glyphosate.
# [5] = molecular target: GLYAT variant SEQ ID NO:10 (derived from SEQ ID NO:1 and 2) (Bacillus licheniformis, UniProt Q65LG7, A28V/D131E/E14D/E65Q/E67K/E68K/G37R/G38S/H61R/I132T/I135A/I15L/I19V/I53V/I91V/K101R/K144R/K58Q/L105M/L106I/L26I/L97I/M75V/R47G/R92K/T89S/V114A/Y130F/Y45F); conditions: pH 7.0
# [6] = molecular target: novel GLYAT variants of Table 3 (high specificity variants derived from SEQ ID NO:1 and 2) (Bacillus licheniformis, UniProt Q65LG7); format: biochemical; conditions: lowest value in novel variants
# Method: as §1, §2
# [7] = pH 7.0, non-varied substrate saturating
# Sequence of GLYAT (glyphosate-N-acetyltransferase), parent of saturation mutagenesis (already fit protein), SEQ ID NO:26 (derived from SEQ ID NO:1 and 2) (Q65LG7 entry or part of it with the stated changes): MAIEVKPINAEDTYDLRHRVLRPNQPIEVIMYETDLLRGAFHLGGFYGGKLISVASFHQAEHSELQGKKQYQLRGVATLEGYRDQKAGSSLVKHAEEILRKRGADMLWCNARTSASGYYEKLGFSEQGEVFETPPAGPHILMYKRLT
structure (smiles),measurement,setting,value
N[C@@H](CC(=O)O)C(=O)O [aspartate],Asp as % of glyph (kcat/KM asp / kcat/KM glyph),[1],0.079%
same,Asp as % of glyph (kcat/KM asp / kcat/KM glyph),[2],0.052%
same,Asp as % of glyph (kcat/KM asp / kcat/KM glyph),[3],0.210%
same,Asp as % of glyph (kcat/KM asp / kcat/KM glyph),[4]; pH 7.0,0.038%
same,kcat (aspartate),[4]; [7],1.5 s⁻¹
same,kcat/KM (aspartate),[4]; [7],16 M⁻¹ s⁻¹
same,Asp as % of glyph (kcat/KM asp / kcat/KM glyph),[5],0.091%
same,specificity (kcat/KM asp/kcat/KM glyph),[6],≥ 0.014%
same,kcat/KM with aspartate,"[6]; 25 mM Hepes, pH 7.0",≥ 1.7 M⁻¹ s⁻¹
